From patent US9770520B2, “Chelate nanoemulsion for MRI” (GUERBET, priority 2011, dated 2017)

Molecular target: T1, ∞vβ3 (Homo sapiens, UniProt P05106+P06756)
T1 construct: performed on HUVEC cells overexpressing ∞vβ3; endogenous in cells; host or cells: HUVEC
Test: IC50 by competition with echistatin 125I on HUVEC cells
Type: binding
Settings: competition with echistatin-125I-SIB, read-out: IC50 (nM of targeting ligand)

Molecule `CCCCCCCCCCCCCCCCCC(=O)OCC(COP(=O)(O)OCCNC(=O)OCCOCCOCCOCCOCCOCCOCCOCCOCCOCCOCCOCCOCCOCCOCCOCCOCCOCCOCCOCCOCCOCCOCCOCCOCCOCCOCCOCCOCCOCCOCCOCCOCCOCCOCCOCCOCCOCCOCCOCCOCCOCCOCCOCCOCCNc1c(NCCNC(=O)CCCOc2cc(C)c(S(=O)(=O)CNC(NC(=O)CCCCc3ccc4c(n3)NCCC4)C(=O)O)c(C)c2)c(=O)c1=O)OC(=O)CCCCCCCCCCCCCCCCC` (stereo not shown) [Example 6] has an IC50 of 0.4 nM.
